Values belong to the compound of their own block, whether it stands above or below them.
Columns and labels:
[1] = test system: thyroid peroxidase (TPO) mRNA; assay: Thyroid peroxidase (TPO) mRNA RT-PCR after polyamine synthesis inhibition; type: cell-based, human; details: NPA'87 and KAK-1; minimal basal expression; every dosage
Source text: (§1) hNIS transcriptional failure in thyroid carcinoma could be consequent to methylation of DNA in critical regulatory regions and could be reversed by inhibition of DNA-methyltransferase. Restoration of hNIS gene expression and activity from direct DNA-methyltransferase inhibition by 5-azacytidine has been shown. […] Since dcSAM is consumed by synthesis of polyamines (putrescine, spermidine, spermine) and its synthetic enzyme (adenosylmethionine decarboxylase) is stimulated by polyamine depletion, blockade of polyamine synthesis precipitously increases dcSAM levels. This should block DNA-methyltransferase activity and restore lost hNIS expression in dedifferentiated thyroid carcinomas. To assess this, human thyroid cell lines (NPA'87, papillary carcinoma, & KAK-1, follicular adenoma) without basal expression of hNIS or thyroglobulin (TG) mRNAs, were grown as monolayers in phenol red-free RPMI 1640 with 10% fetal bovine serum. […] Parallel cultures were assessed for Na[^125I] uptake (RAIU) in serum-free buffer, subtracting ^125I counts in buffer with choline (100 mM) to correct for non-specific counts and results normalized for cell density in each condition using thiazolyl blue (MTT) assays. […]

hNIS mRNA = hNIS mRNA RT-PCR after polyamine synthesis inhibition; type: cell-based, human; details: NPA'87 and KAK-1; DFMO 1 or 3 mM, AdoDATO 10 or 30 μM, 6 days; higher doses greater effect
Source text: as §1

KAK-1 cells = assay: Na[125I] uptake (RAIU) after polyamine synthesis inhibition, KAK-1; type: cell-based, human; details: 30 μM AdoDATO
Source text: as §1

thyroglobulin (TG) mRNA = assay: Thyroglobulin (TG) mRNA RT-PCR after polyamine synthesis inhibition; type: cell-based, human; details: NPA'87 and KAK-1; DFMO 1 or 3 mM, AdoDATO 10 or 30 μM, 6 days; higher doses greater effect
Source text: as §1

NPA'87 cells = assay: Na[125I] uptake (RAIU) after polyamine synthesis inhibition, NPA'87; type: cell-based, human; details: DFMO at 3 mM
Source text: as §1

[2] = test system: dedifferentiated follicular and papillary thyroid cancers; details: of 14 patients not concentrating any radioiodine in metastatic tumors at baseline; cited from earlier work
[3] = test system: UCLA RO 82 W-1 (WRO82) cells; details: UCLA RO 82 W-1 (WRO82) follicular carcinoma cell line; cited from earlier work
[4] = test system: human thyroid cancer cell lines; details: several human thyroid cancer cell lines in vitro; cited from earlier work

TPO expression [1]: enhancing expression at every dosage
Compound: NCCCCC[S+](CCN)CC1OC(n2cnc3c(N)ncnc32)C(O)C1O (stereo not drawn) [AdoDATO, S-adenosyl-1,8-diamino-3-thio-octane]
hNIS mRNA expression (hNIS mRNA): restored
increase in RAIU (KAK-1 cells): ~5 fold
TG mRNA expression (thyroglobulin (TG) mRNA): restored

TPO expression [1]: enhancing expression at every dosage
Compound: NCCCC(N)(C(=O)O)C(F)F (stereo not drawn) [DFMO, difluoromethylomithine]
increase in RAIU (NPA'87 cells): > 6 fold
hNIS mRNA expression (hNIS mRNA): restored
TG mRNA expression (thyroglobulin (TG) mRNA): restored

Compound: CC1=C(/C=C/C(C)=C/C=C/C(C)=C\C(=O)O)C(C)(C)CCC1 [13cis-retinoic acid]
additional patients gaining "weak" uptake [2]: three
patients re-establishing distinct iodide uptake after treatment [2]: one
iodide uptake activity [3]: nominal increase

Compound: gamma interferon: cytokine suggested in the literature to minimally enhance iodide uptake in thyroid cancer cell lines
enhancement of iodide uptake [4]: minimal enhancement
